Columns and labels:
[1] = test system: BDNF; test: BDNF ELISA of hippocampus after kainic acid injection; type: in vivo, rat; settings: young rats (PND 22), kainic acid i.p. followed by 8 mg/kg i.p., 24 h; vs vehicle, p<0.001; FIG. 1B
Protocol: (§1) Young rats (PND 22) were injected i.p. with kainic acid (KA), followed immediately by vehicle (veh) or the FAAH inhibitor, Compound 1 (8 mg/kg, i.p.). After 24 h, hippocampus was rapidly dissected, and the homogenates were centrifuged to obtain supernatant for ELISA measures of GDNF) and BDNF. Standard curves were used to convert measures to pg cytokine per mg supernatant protein (±SEM). Unpaired t-tests: GDNF, *p<0.02; BDNF, ***p<0.001.

[2] = test system: GDNF; test: GDNF ELISA of hippocampus after kainic acid injection; type: in vivo, rat; settings: young rats (PND 22), kainic acid i.p. followed by 8 mg/kg i.p., 24 h; vs vehicle, p<0.02; FIG. 1A
Protocol: as §1

[3] = biological target: T1, rat and/or human FAAH enzyme (UniProt P97612); test: FAAH inhibition assay; type: biochemical; settings: rat or human FAAH inhibition assay as in Rahn et al. (2011)
T1 sequence (P97612 1-579): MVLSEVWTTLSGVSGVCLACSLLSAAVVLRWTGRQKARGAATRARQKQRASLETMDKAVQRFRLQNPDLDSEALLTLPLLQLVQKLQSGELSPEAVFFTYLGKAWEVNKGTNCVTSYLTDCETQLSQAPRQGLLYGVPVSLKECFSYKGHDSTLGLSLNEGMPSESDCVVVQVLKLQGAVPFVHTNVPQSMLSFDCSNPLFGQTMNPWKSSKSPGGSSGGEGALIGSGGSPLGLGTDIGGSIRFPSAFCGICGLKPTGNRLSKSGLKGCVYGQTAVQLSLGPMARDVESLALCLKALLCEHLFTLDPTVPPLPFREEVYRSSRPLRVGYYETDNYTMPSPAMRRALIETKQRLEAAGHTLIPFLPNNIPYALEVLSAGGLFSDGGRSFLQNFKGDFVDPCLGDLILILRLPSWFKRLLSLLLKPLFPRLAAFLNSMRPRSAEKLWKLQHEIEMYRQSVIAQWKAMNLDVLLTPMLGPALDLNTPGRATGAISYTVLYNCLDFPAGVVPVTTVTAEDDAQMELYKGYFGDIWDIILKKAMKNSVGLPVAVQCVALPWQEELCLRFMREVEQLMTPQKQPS
From the text: Biochem and Behavior 98: 493. […] Particular FAAH inhibitor compounds for use with the invention include those disclosed in the following references: Deng, H (2010) Expert Opin. Drug Discovery 5(10): 961-993 and Blankman (2013) Pharmacol Rev 65:849-871, Seierstad (2008) J. Med. Chem., 51 (23), pp 7327-7343, Ahn (2009) Expert Opin. Drug Discov. 4(7):763-784 and references cited therein.

O=C(CCCOc1ccc(OCc2ccccc2)cc1)C(F)(F)F [Compound 1, 5-(4-(benzyloxy)phenoxy)-1,1,1-trifluoropentan-2-one]
BDNF levels in hippocampus (ELISA) [1]: protects against excitotoxin-induced reduction in BDNF | GDNF levels in hippocampus (ELISA) [2]: enhances GDNF levels | IC50 [3]: 42 nM

— patent publication US20160136110A1, “Method for Treating a Neurodegenerative Event” (MAKScientific, LLC, priority 2012, published 2016)
